In ChEMBL document CHEMBL1138991, “(+)-12alpha-Hydroxysophocarpine, a new quinolizidine alkaloid and related anti-HBV alkaloids from Sophora flavescens” (2006):
Active and inactive are the calls of the source. The calls are words filed in the database; no cut-off is given here.

tested on: Hepatitis B virus; assay: Inhibition of HBsAg release against HBV in HepG2 2.2.15 cell line at 0.8 umol/mL; format: functional; set-up: scale not given: the % may be the effect or the level left; settings: not given

Row | Compound | Activity [%]
1 | O=C1C=CC[C@@H]2[C@H]3CCCN4CCC[C@H](CN12)[C@@H]34 | 79.3

tested on: Hepatitis B virus; assay: Inhibition of HBsAg release against HBV in HepG2 2.2.15 cell line at 0.4 umol/mL; format: functional; set-up: scale not given: the % may be the effect or the level left; settings: not given

Row | Compound | Activity [%]
2 | O=C1C=CC[C@@H]2[C@H]3CCCN4CCC[C@H](CN12)[C@@H]34 | 78.2
3 | O=c1cccc2n1C[C@H]1C[C@H]2CN2CCCC[C@H]12 | 33.1

tested on: Hepatitis B virus; assay: Inhibition of HBeAg release against HBV in HepG2 2.2.15 cell line at 0.8 umol/mL; format: functional; set-up: scale not given: the % may be the effect or the level left; settings: not given

Row | Compound | Activity [%]
4 | O=C1C=CC[C@@H]2[C@H]3CCCN4CCC[C@H](CN12)[C@@H]34 | 27.6

tested on: Hepatitis B virus; assay: Inhibition of HBeAg release against HBV in HepG2 2.2.15 cell line at 0.4 umol/mL; format: functional; set-up: scale not given: the % may be the effect or the level left; settings: not given

Row | Compound | Activity [%]
5 | O=C1C=CC[C@@H]2[C@H]3CCCN4CCC[C@H](CN12)[C@@H]34 | 22.4
6 | O=c1cccc2n1C[C@H]1C[C@H]2CN2CCCC[C@H]12 | 0

tested on: Hepatitis B virus; assay: Inhibition of HBsAg release against HBV in HepG2 2.2.15 cell line at 0.2 umol/mL; format: functional; set-up: scale not given: the % may be the effect or the level left; settings: not given

Row | Compound | Activity [%]
7 | O=C1C=CC[C@@H]2[C@H]3CCCN4CCC[C@H](CN12)[C@@H]34 | 63.4
8 | O=C1CCC[C@@H]2[C@H]3CCC[N+]4([O-])CCC[C@@H](CN12)[C@@H]34 (some centres undefined) [OXYMATRINE] | 39.7
9 | O=C1CC=C[C@@H]2[C@H]3CCCN4CCC[C@@H](CN12)[C@@H]34 | 52.6
10 | O=C1C=C[C@H](O)[C@@H]2[C@H]3CCCN4CCC[C@@H](CN12)[C@@H]34 | 40.8
11 | O=C1C=CC[C@@H]2[C@H]3CCC[N+]4([O-])CCC[C@@H](CN12)[C@@H]34 (some centres undefined) [OXYSOPHOCARPINE] | 48.3
12 | O=C1C=CC[C@@H]2[C@H]3CCCN4CCC[C@@H](CN12)[C@@H]34 [SOPHOCARPINE] | 57.2
13 | O=C1CCC[C@@H]2[C@H]3CCCN4CCC[C@@H](CN12)[C@@H]34 [MATRINE] | 30.9
14 | O=c1cccc2n1C[C@H]1C[C@H]2CN2CCCC[C@H]12 | 19.8
15 | O=C1CCC[C@@H]2[C@H]3CCCN4CCC[C@@H](CN12)[C@H]34 | 27.7
16 | O=C1C=CC[C@@H]2[C@H]3C[C@H](O)CN4CCC[C@@H](CN12)[C@@H]34 | 24.5
17 | O=C1CCC[C@@H]2[C@H]3C[C@H](O)CN4CCC[C@@H](CN12)[C@@H]34 | 31.6

tested on: Hepatitis B virus; assay: Inhibition of HBsAg release against HBV in HepG2 2.2.15 cell line at 0.1 umol/mL; format: functional; set-up: scale not given: the % may be the effect or the level left; settings: not given

Row | Compound | Activity [%]
18 | O=C1C=CC[C@@H]2[C@H]3CCCN4CCC[C@H](CN12)[C@@H]34 | 17.9
19 | O=C1CCC[C@@H]2[C@H]3CCC[N+]4([O-])CCC[C@@H](CN12)[C@@H]34 (some centres undefined) [OXYMATRINE] | 35.3
20 | O=C1CC=C[C@@H]2[C@H]3CCCN4CCC[C@@H](CN12)[C@@H]34 | 25.1
21 | O=C1C=C[C@H](O)[C@@H]2[C@H]3CCCN4CCC[C@@H](CN12)[C@@H]34 | 28
22 | O=C1C=CC[C@@H]2[C@H]3CCC[N+]4([O-])CCC[C@@H](CN12)[C@@H]34 (some centres undefined) [OXYSOPHOCARPINE] | 39.9
23 | O=C1C=CC[C@@H]2[C@H]3CCCN4CCC[C@@H](CN12)[C@@H]34 [SOPHOCARPINE] | 21.6
24 | O=C1CCC[C@@H]2[C@H]3CCCN4CCC[C@@H](CN12)[C@@H]34 [MATRINE] | 8.9
25 | O=C1CCC[C@@H]2[C@H]3CCCN4CCC[C@@H](CN12)[C@H]34 | 25.1
26 | O=C1C=CC[C@@H]2[C@H]3C[C@H](O)CN4CCC[C@@H](CN12)[C@@H]34 | 0
27 | O=C1CCC[C@@H]2[C@H]3C[C@H](O)CN4CCC[C@@H](CN12)[C@@H]34 | 18.1

tested on: Hepatitis B virus; assay: Inhibition of HBeAg release against HBV in HepG2 2.2.15 cell line at 0.2 umol/mL; format: functional; set-up: scale not given: the % may be the effect or the level left; settings: not given

Row | Compound | Activity [%]
28 | O=C1C=CC[C@@H]2[C@H]3CCCN4CCC[C@H](CN12)[C@@H]34 | 6.8
29 | O=C1CCC[C@@H]2[C@H]3CCC[N+]4([O-])CCC[C@@H](CN12)[C@@H]34 (some centres undefined) [OXYMATRINE] | 17.1
30 | O=C1CC=C[C@@H]2[C@H]3CCCN4CCC[C@@H](CN12)[C@@H]34 | 25.4
31 | O=C1C=C[C@H](O)[C@@H]2[C@H]3CCCN4CCC[C@@H](CN12)[C@@H]34 | 4.6
32 | O=C1C=CC[C@@H]2[C@H]3CCC[N+]4([O-])CCC[C@@H](CN12)[C@@H]34 (some centres undefined) [OXYSOPHOCARPINE] | 24.6
33 | O=C1C=CC[C@@H]2[C@H]3CCCN4CCC[C@@H](CN12)[C@@H]34 [SOPHOCARPINE] | 34.6
34 | O=C1CCC[C@@H]2[C@H]3CCCN4CCC[C@@H](CN12)[C@@H]34 [MATRINE] | 2.7
35 | O=c1cccc2n1C[C@H]1C[C@H]2CN2CCCC[C@H]12 | 0
36 | O=C1CCC[C@@H]2[C@H]3CCCN4CCC[C@@H](CN12)[C@H]34 | 10.8
37 | O=C1C=CC[C@@H]2[C@H]3C[C@H](O)CN4CCC[C@@H](CN12)[C@@H]34 | 5.7
38 | O=C1CCC[C@@H]2[C@H]3C[C@H](O)CN4CCC[C@@H](CN12)[C@@H]34 | 19.5

tested on: Hepatitis B virus; assay: Inhibition of HBeAg release against HBV in HepG2 2.2.15 cell line at 0.1 umol/mL; format: functional; set-up: scale not given: the % may be the effect or the level left; settings: not given

Row | Compound | Activity [%]
39 | O=C1C=CC[C@@H]2[C@H]3CCCN4CCC[C@H](CN12)[C@@H]34 | 0
40 | O=C1CCC[C@@H]2[C@H]3CCC[N+]4([O-])CCC[C@@H](CN12)[C@@H]34 (some centres undefined) [OXYMATRINE] | 15.8
41 | O=C1CC=C[C@@H]2[C@H]3CCCN4CCC[C@@H](CN12)[C@@H]34 | 22.6
42 | O=C1C=C[C@H](O)[C@@H]2[C@H]3CCCN4CCC[C@@H](CN12)[C@@H]34 | 0
43 | O=C1C=CC[C@@H]2[C@H]3CCC[N+]4([O-])CCC[C@@H](CN12)[C@@H]34 (some centres undefined) [OXYSOPHOCARPINE] | 22.4
44 | O=C1C=CC[C@@H]2[C@H]3CCCN4CCC[C@@H](CN12)[C@@H]34 [SOPHOCARPINE] | 31.4
45 | O=C1CCC[C@@H]2[C@H]3CCCN4CCC[C@@H](CN12)[C@@H]34 [MATRINE] | 0
46 | O=C1CCC[C@@H]2[C@H]3CCCN4CCC[C@@H](CN12)[C@H]34 | 9.6
47 | O=C1C=CC[C@@H]2[C@H]3C[C@H](O)CN4CCC[C@@H](CN12)[C@@H]34 | 0
48 | O=C1CCC[C@@H]2[C@H]3C[C@H](O)CN4CCC[C@@H](CN12)[C@@H]34 | 13.3

tested on: HepG2; assay: Cytotoxicity against HepG2 2.2.15 cell line at 0.4 umol/mL by MTT assay; format: functional, Homo sapiens; settings: not given

Row | Compound | Activity
49 | O=C1CCC[C@@H]2[C@H]3CCC[N+]4([O-])CCC[C@@H](CN12)[C@@H]34 (some centres undefined) [OXYMATRINE] | >=25%
50 | O=C1CC=C[C@@H]2[C@H]3CCCN4CCC[C@@H](CN12)[C@@H]34 | >=25%
51 | O=C1C=C[C@H](O)[C@@H]2[C@H]3CCCN4CCC[C@@H](CN12)[C@@H]34 | >=25%
52 | O=C1C=CC[C@@H]2[C@H]3CCC[N+]4([O-])CCC[C@@H](CN12)[C@@H]34 (some centres undefined) [OXYSOPHOCARPINE] | >=25%
53 | O=C1C=CC[C@@H]2[C@H]3CCCN4CCC[C@@H](CN12)[C@@H]34 [SOPHOCARPINE] | >=25%
54 | O=C1CCC[C@@H]2[C@H]3CCCN4CCC[C@@H](CN12)[C@@H]34 [MATRINE] | >=25%
55 | O=C1CCC[C@@H]2[C@H]3CCCN4CCC[C@@H](CN12)[C@H]34 | >=25%
56 | O=C1C=CC[C@@H]2[C@H]3C[C@H](O)CN4CCC[C@@H](CN12)[C@@H]34 | >=25%
57 | O=C1CCC[C@@H]2[C@H]3C[C@H](O)CN4CCC[C@@H](CN12)[C@@H]34 | >=25%

tested on: HepG2; assay: Cytotoxicity against HepG2 2.2.15 cell line at 1.6 umol/mL by MTT assay; format: functional, cell-based; settings: Homo sapiens

Row | Compound | Activity
58 | O=C1C=CC[C@@H]2[C@H]3CCCN4CCC[C@H](CN12)[C@@H]34 | Active

tested on: HepG2; assay: Cytotoxicity against HepG2 2.2.15 cell line at 0.8 umol/mL by MTT assay; format: functional, cell-based; settings: Homo sapiens

Row | Compound | Activity
59 | O=c1cccc2n1C[C@H]1C[C@H]2CN2CCCC[C@H]12 | Active
